Reference: patent US12448373B2, “Azetidinyl-acetamides as CXCR7 inhibitors” (CHEMOCENTRYX, INC., priority 2021, dated 2025)

biological target: T1, CXCR7 (Homo sapiens, UniProt P25106); test: CXCR7 β-arrestin recruitment assay in CHO-CXCR7 cells (ProLink/EA β-galactosidase complementation), induced by human SDF-1a; type: cell-based; settings: assay buffer, SDF-1a at EC50 concentration
T1 construct: expressed in transfected cells; host or cells: CHO cells (CHO-CXCR7), transgenes maintained with Hygromycin B and G418
T1 sequence (P25106 whole entry): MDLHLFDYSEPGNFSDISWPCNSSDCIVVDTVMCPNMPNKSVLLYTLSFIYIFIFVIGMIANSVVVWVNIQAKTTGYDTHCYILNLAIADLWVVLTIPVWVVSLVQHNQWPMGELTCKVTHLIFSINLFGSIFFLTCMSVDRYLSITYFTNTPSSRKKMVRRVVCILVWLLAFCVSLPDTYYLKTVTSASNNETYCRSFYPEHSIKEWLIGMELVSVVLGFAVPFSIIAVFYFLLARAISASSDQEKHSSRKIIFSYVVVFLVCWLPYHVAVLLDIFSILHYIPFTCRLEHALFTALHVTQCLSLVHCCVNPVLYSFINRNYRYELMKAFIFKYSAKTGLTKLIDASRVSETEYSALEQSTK
Procedure, shortened: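 CHO cells co-expressing ProLink-tagged CXCR7 and β-arrestin-EA were pre-plated overnight, then given compound and human SDF-1α at its same-day EC50. After 1.5 h at 37 °C, complemented β-galactosidase was read from 0.4 mM 3-carboxyumbelliferyl β-D-galactopyranoside (30 min, 37 °C; ex 360/em 465 nm). IC50 by 3-parameter fit.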

| Structure (SMILES) | IC50 [nM] |
| --- | --- |
| CC(C)(NC(=O)CC1(NC(=O)c2cc(-c3ccc(F)cc3F)on2)CN([C@H]2CC[C@@](C)(O)CC2)C1)c1ccnc(C2CC2)c1 [Example 1.146] | 5 to 100 |
| CC(C)(NC(=O)CC1(NC(=O)c2cc(-c3ccc(F)cc3F)on2)CN([C@H]2CC[C@](C)(O)CC2)C1)c1ccnc(C2CC2)c1 [Example 1.147] | 5 to 100 |
| CCc1cc(C(C)(C)NC(=O)CC2(NC(=O)c3cc(-c4ccc(F)cc4F)on3)CN([C@H]3CC[C@](C)(O)CC3)C2)ccn1 [Example 1.149] | 5 to 100 |
| Cc1cc(C(C)(C)NC(=O)CC2(NC(=O)c3cc(-c4ccc(F)cc4F)on3)CN(CC3(C)COC3)C2)ccn1 [Example 1.151] | 5 to 100 |
| CC(C)(NC(=O)CC1(NC(=O)c2cc(-c3ccc(F)cc3F)on2)CN([C@H]2CC[C@](C)(O)CC2)C1)c1cc(F)cc(F)c1 [Example 1.153] | < 5 |
| CC(C)(NC(=O)CC1(NC(=O)c2cc(-c3ccc(F)cc3F)on2)CN([C@H]2CC[C@](C)(O)CC2)C1)c1cccc(C(F)(F)F)n1 [Example 1.156] | < 5 |
| CC(C)(NC(=O)CC1(NC(=O)c2cc(-c3ccc(F)cc3F)on2)CN([C@H]2CC[C@](C)(O)CC2)C1)c1cnccn1 [Example 1.158] | 5 to 100 |
| Cc1cc(C(C)(C)NC(=O)CC2(NC(=O)c3cc(-c4ccc(F)cc4F)on3)CN(C3CCC4(CC3)COC4)C2)ccn1 [Example 1.159] | 5 to 100 |
| COc1cc(Cl)cc(C(C)(C)NC(=O)CC2(NC(=O)c3cc(-c4ccc(F)cc4F)on3)CN([C@H]3CC[C@@](C)(O)CC3)C2)c1 [Example 1.160] | < 5 |
| CC(C)(NC(=O)CC1(NC(=O)c2cc(-c3ccc(F)cc3F)on2)CN([C@H]2CC[C@@](C)(O)CC2)C1)c1ccnc(C#N)c1 [Example 1.161] | 5 to 100 |
| CC(C)(NC(=O)CC1(NC(=O)c2cc(-c3ccc(F)cc3F)on2)CN([C@H]2CC[C@](C)(O)CC2)C1)c1ccnc(C#N)c1 [Example 1.162] | 5 to 100 |
| Cc1ccnc(C(C)(C)NC(=O)CC2(NC(=O)c3cc(-c4ccc(F)cc4F)on3)CN([C@H]3CC[C@@](C)(O)CC3)C2)c1 [Example 1.163] | < 5 |
| Cc1cc(C)nc(C(C)(C)NC(=O)CC2(NC(=O)c3cc(-c4ccc(F)cc4F)on3)CN([C@H]3CC[C@](C)(O)CC3)C2)n1 [Example 1.168] | < 5 |
| COc1cc(F)cc(C(C)(C)NC(=O)CC2(NC(=O)c3cc(-c4ccc(F)cc4F)on3)CN([C@H]3CC[C@](C)(O)CC3)C2)c1 [Example 1.170] | 5 to 100 |
| COc1cc(C(C)(C)NC(=O)CC2(NC(=O)c3cc(-c4ccc(F)cc4F)on3)CN(CC(C)(C)O)C2)ccn1 [Example 1.171] | 100 to 1000 |
| CC(C)(NC(=O)CC1(NC(=O)c2cc(-c3ccc(F)cc3F)on2)CN([C@H]2CC[C@](C)(O)CC2)C1)c1cccc(C#N)c1 [Example 1.173] | < 5 |
| COc1cccc(C(C)(C)NC(=O)CC2(NC(=O)c3cc(-c4ccc(F)cc4F)on3)CN(CC3(C)COC3)C2)c1 [Example 1.174] | 100 to 1000 |
| COc1cc(C(C)(C)NC(=O)CC2(NC(=O)c3cc(-c4ccc(F)cc4F)on3)CN([C@H]3CC[C@@](C)(O)CC3)C2)ccc1F [Example 1.176] | 5 to 100 |
| COc1cccc(C(C)(C)NC(=O)CC2(NC(=O)c3cc(-c4ccc(F)cc4F)on3)CN(CC(C)(C)O)C2)c1 [Example 1.179] | 5 to 100 |
| CC(C)(NC(=O)CC1(NC(=O)c2cc(-c3ccc(F)cc3F)on2)CN([C@H]2CC[C@](C)(O)CC2)C1)c1ccncc1 [Example 1.182] | < 5 |
| Cc1ccc(F)c(C(C)(C)NC(=O)CC2(NC(=O)c3cc(-c4ccc(F)cc4F)on3)CN([C@H]3CC[C@@](C)(O)CC3)C2)c1 [Example 1.184] | < 5 |
| Cc1ccc(F)c(C(C)(C)NC(=O)CC2(NC(=O)c3cc(-c4ccc(F)cc4F)on3)CN([C@H]3CC[C@](C)(O)CC3)C2)c1 [Example 1.185] | < 5 |
| CCOc1cccc(C(C)(C)NC(=O)CC2(NC(=O)c3cc(-c4ccc(F)cc4F)on3)CN([C@H]3CC[C@@](C)(O)CC3)C2)c1 [Example 1.186] | 5 to 100 |
| CCOc1cccc(C(C)(C)NC(=O)CC2(NC(=O)c3cc(-c4ccc(F)cc4F)on3)CN([C@H]3CC[C@](C)(O)CC3)C2)c1 [Example 1.187] | 5 to 100 |
| COc1cc(C(C)(C)NC(=O)CC2(NC(=O)c3cc(-c4ccc(F)cc4F)on3)CN([C@H]3CC[C@@](C)(O)CC3)C2)ccn1 [Example 1.188] | < 5 |
| CC(C)(NC(=O)CC1(NC(=O)c2cc(-c3ccc(F)cc3F)on2)CN([C@H]2CC[C@@](C)(O)CC2)C1)c1ccccn1 [Example 1.192] | < 5 |
| CC(C)(NC(=O)CC1(NC(=O)c2cc(-c3ccc(F)cc3F)on2)CN([C@H]2CC[C@@](C)(O)CC2)C1)c1cccc(OC(F)(F)F)c1 [Example 1.197] | < 5 |
| CC(C)(NC(=O)CC1(NC(=O)c2cc(-c3ccc(F)cc3F)on2)CN([C@H]2CC[C@](C)(O)CC2)C1)c1cccc(OC(F)(F)F)c1 [Example 1.198] | 5 to 100 |
| CC(C)(NC(=O)CC1(NC(=O)c2cc(-c3ccc(F)cc3F)on2)CN([C@H]2CC[C@](C)(O)CC2)C1)c1cccc(C(F)(F)F)c1 [Example 1.199] | 5 to 100 |
| COc1ccnc(C(C)(C)NC(=O)CC2(NC(=O)c3cc(-c4ccc(F)cc4F)on3)CN([C@H]3CC[C@](C)(O)CC3)C2)c1 [Example 1.201] | < 5 |

Second part, the molecule after the results:

| IC50 [nM] | Structure (SMILES) |
| --- | --- |
| 5 to 100 | CCc1cc(C(C)(C)NC(=O)CC2(NC(=O)c3cc(-c4ccc(F)cc4F)on3)CN([C@H]3CC[C@@](C)(O)CC3)C2)ccn1 [Example 1.148] |
| 100 to 1000 | Cc1cc(C(C)(C)NC(=O)CC2(NC(=O)c3cc(-c4ccc(F)cc4F)on3)CN(CC3(O)CCC3)C2)ccn1 [Example 1.150] |
| < 5 | CC(C)(NC(=O)CC1(NC(=O)c2cc(-c3ccc(F)cc3F)on2)CN([C@H]2CC[C@@](C)(O)CC2)C1)c1cc(F)cc(F)c1 [Example 1.152] |
| < 5 | COc1cc(Cl)cc(C(C)(C)NC(=O)CC2(NC(=O)c3cc(-c4ccc(F)cc4F)on3)CN(CC(C)(C)O)C2)c1 [Example 1.154] |
| < 5 | CC(C)(NC(=O)CC1(NC(=O)c2cc(-c3ccc(F)cc3F)on2)CN([C@H]2CC[C@@](C)(O)CC2)C1)c1cccc(C(F)(F)F)n1 [Example 1.155] |
| 5 to 100 | CC(C)(NC(=O)CC1(NC(=O)c2cc(-c3ccc(F)cc3F)on2)CN([C@H]2CC[C@@](C)(O)CC2)C1)c1cnccn1 [Example 1.157] |
| < 5 | Cc1ccnc(C(C)(C)NC(=O)CC2(NC(=O)c3cc(-c4ccc(F)cc4F)on3)CN([C@H]3CC[C@](C)(O)CC3)C2)c1 [Example 1.164] |
| < 5 | COc1cc(Cl)cc(C(C)(C)NC(=O)CC2(NC(=O)c3cc(-c4ccc(F)cc4F)on3)CN([C@H]3CC[C@](C)(O)CC3)C2)c1 [Example 1.165] |
| 5 to 100 | CC(C)(NC(=O)CC1(NC(=O)c2cc(-c3ccc(F)cc3F)on2)CN([C@H]2CC[C@](C)(O)CC2)C1)c1ccnc(C(F)(F)F)c1 [Example 1.166] |
| < 5 | COc1cc(C)nc(C(C)(C)NC(=O)CC2(NC(=O)c3cc(-c4ccc(F)cc4F)on3)CN([C@H]3CC[C@@](C)(O)CC3)C2)n1 [Example 1.167] |
| < 5 | COc1cc(F)cc(C(C)(C)NC(=O)CC2(NC(=O)c3cc(-c4ccc(F)cc4F)on3)CN([C@H]3CC[C@@](C)(O)CC3)C2)c1 [Example 1.169] |
| < 5 | CC(C)(NC(=O)CC1(NC(=O)c2cc(-c3ccc(F)cc3F)on2)CN([C@H]2CC[C@@](C)(O)CC2)C1)c1cccc(C#N)c1 [Example 1.172] |
| 5 to 100 | Cc1cc(C(C)(C)NC(=O)CC2(NC(=O)c3cc(-c4ccc(F)cc4F)on3)CN(CC(C)(C)O)C2)ccn1 [Example 1.175] |
| 5 to 100 | COc1cc(C(C)(C)NC(=O)CC2(NC(=O)c3cc(-c4ccc(F)cc4F)on3)CN([C@H]3CC[C@](C)(O)CC3)C2)ccc1F [Example 1.177] |
| < 5 | CC(C)(O)CN1CC(CC(=O)NC(C)(C)c2cccc(Cl)c2)(NC(=O)c2cc(-c3ccc(F)cc3F)on2)C1 [Example 1.178] |
| < 5 | CC(C)(NC(=O)CC1(NC(=O)c2cc(-c3ccc(F)cc3F)on2)CN([C@H]2CC[C@@](C)(O)CC2)C1)c1ccncc1 [Example 1.180] |
| 5 to 100 | CC(C)(NC(=O)CC1(NC(=O)c2cc(-c3ccc(F)cc3F)on2)CN([C@H]2CC[C@](C)(O)CC2)C1)c1ccncn1 [Example 1.181] |
| 5 to 100 | COc1cccc(C(C)(C)NC(=O)CC2(NC(=O)c3cc(-c4ccc(F)cc4F)on3)CN(C3CCC4(CC3)COC4)C2)c1 [Example 1.183] |
| < 5 | COc1cc(C(C)(C)NC(=O)CC2(NC(=O)c3cc(-c4ccc(F)cc4F)on3)CN([C@H]3CC[C@](C)(O)CC3)C2)ccn1 [Example 1.189] |
| 5 to 100 | C[C@]1(O)CC[C@@H](N2CC(CC(=O)NC3(c4ccccn4)CC3)(NC(=O)c3cc(-c4ccc(F)cc4F)on3)C2)CC1 [Example 1.190] |
| 5 to 100 | C[C@]1(O)CC[C@H](N2CC(CC(=O)NC3(c4ccccn4)CC3)(NC(=O)c3cc(-c4ccc(F)cc4F)on3)C2)CC1 [Example 1.191] |
| 5 to 100 | CC(C)(NC(=O)CC1(NC(=O)c2cc(-c3ccc(F)cc3F)on2)CN([C@H]2CC[C@@](C)(O)CC2)C1)c1cccnc1 [Example 1.193] |
| 5 to 100 | CC(C)(NC(=O)CC1(NC(=O)c2cc(-c3ccc(F)cc3F)on2)CN([C@H]2CC[C@](C)(O)CC2)C1)c1cccnc1 [Example 1.194] |
| 5 to 100 | COc1cccc(C(C)(C)NC(=O)CC2(NC(=O)c3cc(-c4ccc(F)cc4F)on3)CN([C@H]3CC[C@@](C)(O)CC3)C2)c1F [Example 1.195] |
| 100 to 1000 | COc1cccc(C(C)(C)NC(=O)CC2(NC(=O)c3cc(-c4ccc(F)cc4F)on3)CN([C@H]3CC[C@](C)(O)CC3)C2)c1F [Example 1.196] |
| 5 to 100 | COc1ccnc(C(C)(C)NC(=O)CC2(NC(=O)c3cc(-c4ccc(F)cc4F)on3)CN([C@H]3CC[C@@](C)(O)CC3)C2)c1 [Example 1.200] |
